Laboratory results: patent US6664069B1, “Use of GABAB receptor agonists in the screening of compounds which are reflux inhibitors” (AstraZeneca AB, priority 1996, dated 2003)

Test system: transient lower esophageal sphincter relaxations (TLESR)
Test: Effect of GABAB receptor agonists on TLESR in dog after nutrient infusion and air insufflation
Format: in vivo
Settings: for TLESR % of control at 90 min / TLESR % of control at 45 min: mean ± SEM; for TLESR % of control at 45 min: first 45 min
Procedure: Adult Labrador retriever dogs of both sexes (5 males, 3 females) weighing 20-30 kg were used. A cervical esophagostomy was formed to allow intubation. After a recovery period, the dogs were used in control experiments until a stable and reliable control response had been achieved. The dogs were used in other experiments before they were given the GABAB receptor agonists, but they were always allowed a wash-out period of at least two days during which time no drugs were administered. Every fourth experiment on each dog was a control experiment to ensure stability and reproducibility of the results.
The experiments were started at about 8 a.m. at which time the animals had been fasting for approximately 17 hrs. The dog was placed in a Pavlov stand to which it had been accustomed previously. A thin silicone catheter with a distal opening was introduced retrogradely through the esophagostomy into the pharynx to record swallowing. The catheter was perfused with air at approximately 2 ml/min. A multilumen assembly was positioned so that pressures could be recorded in the proximal stomach, LES and at four sites in the distal esophagus. The assembly was fitted with a 6 cm long sleeve to measure LES pressure reliably. Gastric and LES channels were perfused with distilled degassed water at 0.45 ml/min and esophageal channels at 0.1 ml/min. A low-compliance pneumohydraulic pump was used to achieve optimal perfusion conditions. Intraluminal pressures were measured with external pressure transducers. The signals were amplified and acquired using LabWindows/CVI software (version 3.1). Pressure calibrations were done at 0 and 100 mm Hg with the multilumen assemblies placed at a level slightly below the pressure transducers. The dog was positioned so that the average intragastric (i.g.) pressure approximated 0 mm Hg. An antimony pH-electrode was positioned 3 cm orad to the upper margin of the LES, and the signals were acquired as described above. Analysis of acquired signals was made using LabWindows software.
Baseline measurement was done for at least 10 min, and then vehicle (0.9% NaCl; 0.5 ml/kg) or a GABAB receptor agonist was given i.v. over 2 min. Ten min after the completion of the administration, nutrient was infused i.g. via the multilumen assembly at a rate of 100 ml/min (30 ml/kg). GABA was given as a continuous i.v. infusion which commenced 10 min before nutrient administration; and R, S,-baclofen was in some cases given intragastrically 30 min before nutrient. The nutrient contained 10% peptone (w/v), 5% Intralipid (v/v) and 5% D-glucose (w/v) and was acidified to pH 3.0 with HCl. Immediately after the infusion, air was insufflated at 40 ml/min to make up a total time of 90 min starting from the commencement of nutrient infusion. The dog was then extubated and a baseline measurement was done to ensure that no drift had occurred.
A TLESR was identified by the following criteria; The difference between LES and i.g. pressures was less than 2 mm Hg, the duration was more than 0.5 s and the relaxation was not triggered by primary peristalsis (i.e. by a pharyngeal signal). The rate of pressure drop was more than 10 mm Hg/s. Most, but not all, TLESR could also be detected aurally by a characteristic noise at the esophagostomy (i.e. belching). The total number of TLESR was calculated for the first 45 min period and entire experiment (90 min). The effect of GABAB receptor agonists was expressed relative to individual control data (n≧5). Each agonist was tested in at least two different dogs.

[1] = 1.5 mg/kg intragastric admin. 30 min before nutrient
[2] = 1.8 mg/kg as intravenous infusion over 100 min
[3] = 5.4 mg/kg as intravenous infusion over 100 min

| Compound | TLESR % of control at 90 min (0.3 mg/kg intravenously) | TLESR % of control at 45 min (0.3 mg/kg intravenously) | TLESR % of control at 90 min (1.5 mg/kg intravenously) | TLESR % of control at 45 min (1.5 mg/kg intravenously) | TLESR % of control at 90 min (0.03 mg/kg intravenously) | TLESR % of control at 45 min (0.03 mg/kg intravenously) | also measured |
| --- | --- | --- | --- | --- | --- | --- | --- |
| NCC(CC(=O)O)c1ccc(Cl)cc1 (racemic) [R, S-baclofen, 4-amino-3-(4-chlorophenyl)butanoic acid] | 66 ± 8 % of control | 47 ± 6 % of control | 43 ± 19 % of control | 11 ± 6 % of control |  |  | TLESR % of control at 90 min [1]: 54 ± 12 % of control; TLESR % of control at 45 min [1]: 12 ± 6 % of control; behavioural side effects (high R,S-baclofen dose, disappeared approximately one hour after the administration): some sedation |
| CP(=O)(O)C[C@@H](O)CN [(3-amino-2-(S)-hydroxypropyl)methylphosphinic acid] | 38 ± 6 % of control | 0 ± 0 % of control |  |  | 65 ± 10 % of control | 53 ± 7 % of control |  |
| CP(=O)(O)CCCN [(3-aminopropyl)methylphosphinic acid] |  |  |  |  | 50 ± 17 % of control | 25 ± 4 % of control | TLESR % of control at 90 min (0.003 mg/kg intravenously): 76 ± 5 % of control; TLESR % of control at 45 min (0.003 mg/kg intravenously): 57 ± 12 % of control; TLESR % of control at 90 min (0.01 mg/kg intravenously): 39 ± 7 % of control; TLESR % of control at 45 min (0.01 mg/kg intravenously): 32 ± 8 % of control; TLESR % of control at 90 min (0.1 mg/kg intravenously): 33 ± 9 % of control; TLESR % of control at 45 min (0.1 mg/kg intravenously): 5 ± 5 % of control |
| NCCCC(=O)O [GABA, 4-aminobutanoic acid] |  |  |  |  |  |  | TLESR % of control at 90 min [2]: 61 ± 3 % of control; TLESR % of control at 45 min [2]: 62 ± 2 % of control; TLESR % of control at 90 min [3]: 54 ± 10 % of control; TLESR % of control at 45 min [3]: 57 ± 6 % of control |
| NC[C@H](CC(=O)O)c1ccc(Cl)cc1 [R-baclofen] | 40 ± 11 % of control | 36 ± 10 % of control |  |  |  |  |  |
| NC[C@@H](CC(=O)O)c1ccc(Cl)cc1 [S-baclofen] |  |  | 92 ± 10 % of control | 76 ± 10 % of control |  |  |  |
